According to US9023653B2, “Method of labeling sulfenic acid-containing proteins and peptides” (Wake Forest University Health Sciences, priority 2011, dated 2015):

Legend:
[1] = tested on: NIH 3T3 cells; assay: DCF assay (intracellular ROS level); assay type: cell-based; details: 10 mM, 2 h
Experimental: NIH 3T3 cells cultured in 60-mm dishes were serum starved overnight and incubated with 10 mM dimedone, reagent 2 or 1% DMSO individually for 2 h. 5-(and-6)-carboxy-2′,7′-dichloro-dihydrofluorescein diacetate (carboxy-H2DCFDA) (100 μM; Invitrogen) was added to cells at room temperature after the incubation. The cells were then immediately washed twice with PBS and visualized with Arcturus PixCell II laser capture microscope using 20× objective.

[2] = biological target: C165S AhpC-SOH (Salmonella typhimurium, UniProt P0A251, C166S); assay: Labeling of C165S AhpC-SOH monitored by ESI-TOF MS; assay type: biochemical, bacteria
Experimental: The C165S AhpC was reduced in 10 mM DTT at room temperature for […] and the DTT was then removed by passing the protein solution through a Bio-Gel spin column equilibrated with ddH2O. The protein concentration was measured based on absorbance at 280 nm using the extinction coefficient 24,300 (M^−1 cm^−1). Typically, 200-400 μM C165S AhpC protein was oxidized to —SOH by incubating with 2 equivalents H2O2 for […] at r.t. with mixing. The excess H2O2 was removed using Bio-Gel spin columns equilibrated with ddH2O.
The C165S AhpC-SOH protein generated as described above was diluted to 50 μM in 50 mM Bis-tris-citric acid buffer (pH 7.4) containing 5 mM (final concentration) of reagent 1. After 3 h incubation with mixing, 30 μL aliquot of reaction mixture was passed through a Bio-Gel column equilibrated with 0.1% formic acid for ESI-TOF MS analysis. […] The covalent C165S AhpC-1 adduct was incubated with 50 mM-1 M hydroxylamine (stock 1N hydroxylamine, pH 8.0-8.5, adjusted by adding 2 N NaOH or 1 N ammonium bicarbonate) for 1 h at 37° C. before passing through the Bio-Gel column for ESI-TOF MS analysis.
The C165S AhpC-SOH protein was immediately aliquot to appropriate buffers: 50 mM Bis-tris-citric acid pH 7.4, 8.5, and 9.5, and 25 mM critic acid-Na2HPO4 buffers pH 5.5, and 6.5. Final concentrations of 50 μM protein and 5 mM labeling reagents (dimedone or 2) were used for all reactions. Dimedone stock was made in 0.5 M Bis-tris and DMSO (v:v=1:1) to pre-buffer its acidity around 6.5 before adding it to the reaction buffers. Final DMSO concentration during labeling was 0.5%. At the end of the incubation time (4 h for data in FIG. 1—pH 7.4 and 8.5; 90 min for data in FIG. S5A—pH 5.5-9.5), 30 μl, reaction mixture at each pH was passed through a Bio-Gel spin column and analyzed by ESI-TOF MS. Data were fit using SigmaPlot 11.0 and the user defined equation below to obtain the pKa: […]
The C165S AhpC-SOH was incubated with increasing concentrations of 2 (0.2, 0.5, 1, 5, and 10 mM) for 2 h in 50 mM Bis-tris-citric acid (pH 7.4) at r.t. The reaction mixture (30 μL) was passed through a Bio-Gel spin column and analyzed by ESI-TOF MS. Data were fit to a hyperbolic equation to determine K0.5 using SigmaPlot 11.0.
C165S AhpC-SOH protein was first labeled by 2 at pH 9.5 for 1 h and passed successively through three Bio-Gel spin columns equilibrated with PBS to remove the unreacted 2. Near 100% labeling of AhpC was configured by ESI-TOF MS. The C165S AhpC-2 adduct concentration was measured at 280 nm using the extinction coefficient 24,300 (M^−1 cm^−1) and then diluted in PBS to a final concentration of 50 μM. Click reaction was conducted by adding the following reagents in order: biotin-OEG11-azide (1 mM, final, from 50 mM stock in DMSO), TCEP (2 mM, final, from 100 mM stock freshly made in H2O), TBTA (0.1 mM, final, from 1.7 mM stock made in 1:4 DMSO/t-butanol) and CuSO4 (1 mM, final, from 50 mM stock in H2O). The mixture was incubated at r.t. for 2 h and then 30 μL of reaction mixture was passed through a Bio-Gel column equilibrated with 0.1% formic acid for ESI-TOF MS analysis. The biotin moiety was removed by hydroxylamine treatment as described above and the reaction products were analyzed by ESI-TOF MS.
(§1) ESI-TOF-MS analysis was performed on Agilent MSD TOF system in positive ion mode with the following settings: capillary voltage (VCap) 3500 V, nebulizer gas 30 psig, drying gas 5.0 L min^−1; fragmentor 140 V; gas temperature 325° C. The samples were injected at a flow rate of 20 μL min^−1, using a syringe pump (KD Scientific). The averaged MS spectra were deconvoluted using the Agilent MassHunter Workstation Software v B.01.03.

[3] = tested on: SCC-61 cells; assay: Cell membrane permeability assay; assay type: cell-based; details: 10 mM, 2 h
Experimental: SCC-61 cells were cultured to 95% confluence in complete media (DMEM/F12 High Glucose (Invitrogen) supplemented with 10% fetal bovine serum (FBS, Invitrogen), 1% penicillin & streptomycin (Invitrogen)). Cells were washed with HBSS buffer (pH 7.4) three times and incubated with 10 mM probe 2 in HBSS at r.t. for 2 h. Cells incubated in HBSS without 2 were included as controls. After the incubation, cells were carefully washed by HBSS three times to remove excess 2 and lysed with the lysis buffer described above except in the absence of 2. Lysates were incubated at r.t. for additional 2 h to ensure complete labeling prior to the addition of cold MeOH/CHCl3 for protein precipitation. The denatured proteins were resolubilized in 1% SDS (in PBS) for the click reaction, which was then followed by Western-blot analysis as described above.

[4] = biological target: C165S AhpC-SH, C165S AhpC-SO2H and —SO3H, WT AhpC-S—S-AhpC (Salmonella typhimurium, UniProt P0A251, C166S); assay: Control experiments using AhpC-SH, AhpC-SO2/3H and WT AhpC proteins (ESI-TOF MS); assay type: biochemical, bacteria; details: pH 9.5
Experimental: (§2) Reduced form of C165S AhpC(C165S AhpC-SH), hyperoxidized protein (C165S AhpC-SO2H and —SO3H) and WT AhpC (disulfide crosslinked dimer, […]) were incubated with 1 (5 mM) for 1.5 h at r.t., pass through the Bio-Gel spin column and analyzed by ESI-TOF MS. C165S AhpC-SO2H and —SO3H were generated by incubating C165S AhpC-SH (250 μM) in ddH2O with 20 equivalents H2O2 for 1 h at r.t. with mixing. The excess H2O2 was removed using Bio-Gel spin columns and protein concentration was determined based on absorbance at 280 nm using the extinction coefficient 24,300 (M^−1 cm^−1).
as §1

[5] = tested on: —SOH proteins in NIH 3T3 cell lysates; assay: Labeling of —SOH proteins in NIH 3T3 cell lysates (click biotinylation, Western blot); assay type: biochemical; details: for labeling of lysate proteins (streptavidin-HRP signal): 5 mM
Experimental: NIH 3T3 cells were cultured to 95% confluence in complete media (DMEM High Glucose (Invitrogen) supplemented with 10% fetal bovine serum (FBS, Invitrogen) and 1% penicillin & streptomycin (Invitrogen)). Cells were washed with PBS three times and lysed using 5 mM of 2 in lysis buffer (50 mM NaCl, 1 mM EDTA, 1 mM EGTA, 10% Glycerol, 1% Triton X-100, 25 mM NaF, 10 μM ZnCl2, supplemented with protease and phosphatase inhibitor tablets (Roche)). Lysis buffer was made in 50 mM citric acid/Na2HPO4 when labeling was carried out at pH 5.5 and 7.4, and in 50 mM NaHCO3/Na2CO3 for labeling at pH 9.5. Lysates were incubated for 2 h at r.t. and then quenched by adding cold MeOH/CHCl3^[1] to remove excess 2.
Cells were lysed using lysis buffer (pH 7.4) supplemented with 2 (5 mM) as described above. The labeling was allowed to proceed at r.t. for 2 h before quenching with MeOH/CHCl3. Protein pellets precipitated from 200 μL lysate were resuspended in 50 μL, 1% SDS in PBS, sonicated for 30 s and finally heated at 95° C. for 5 mins. Protein concentration was measured using Bio-Rad protein assay (SDS concentration in the assay 0.001%) and normalized to the same concentration. Click reaction was performed using the solubilized lysate proteins according to the procedures described above. After 2 h incubation, 15 μL reaction aliquot from each sample was mixed with 5 μL sample buffer (with β-mecaptoethanol) for SDS-PAGE and Western blot analysis. Biotinylated proteins were probed using Streptavidin-HRP. In control experiments, lysates were pre-reduced with 10 mM TCEP at pH 7.4 for 1 h at r.t. before the addition of 2; lysates prepared in the absence of 2 with or without click reaction were also included in the SDS-PAGE and Western blot analysis.

[6] = tested on: SCC-61 cells; assay: MTT assay (cell viability); assay type: cell-based; details: 1 h incubation, 1-20 mM
Experimental: MTT (3-(4,5-dimethylthiazol-2-yl)-2,5-diphenyltetrazolium bromide) assay was used to test the SCC-61 cell viability when incubated with dimedone or 2 for 1 h. SCC-61 cells were seeded in a 96-well plate at a density of 5,000 per well in 50 μL, and incubated overnight. Dimedone or 2 (50 μL) was added to each well at final concentrations of 1, 2.5, 5, 10, and 20 mM. Plates were then incubated for 1 h at 37° C. in a humidified atmosphere with 5% CO2. MTT labeling reagent (Roche; 5 mg/ml in PBS, 10 μL) was added to each well, and the plate was incubated for 4 h at 37° C. The solubilization solution (100 μL) was then added to each well for overnight incubation at 37° C. The following day, absorbance was measured at 570 nm and all experiments were repeated twice. The resulting curves were fitted using SigmaPlot software to a sigmoidal dose-response equation to determine the IC50. The IC50 represents the concentration of chemical probe causing a 50% reduction in cell viability.

[7] = cited from earlier work
[8] = tested on: C165S AhpC-SH, C165S AhpC-SO2H and —SO3H, WT AhpC-S—S-AhpC; assay: Control experiments using AhpC-SH, AhpC-SO2/3H and WT AhpC proteins (ESI-TOF MS); assay type: biochemical, bacteria; details: 5 mM, pH 7.4, 1.5 h at r.t.
Experimental: as §2, §1

Sequence of C165S AhpC-SOH (P0A251 whole entry C166S): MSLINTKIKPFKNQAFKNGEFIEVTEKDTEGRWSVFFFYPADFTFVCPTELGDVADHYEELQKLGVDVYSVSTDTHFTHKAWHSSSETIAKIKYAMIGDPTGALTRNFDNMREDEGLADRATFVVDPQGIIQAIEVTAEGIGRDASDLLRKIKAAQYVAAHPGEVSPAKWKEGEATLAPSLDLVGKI
Sequence of C165S AhpC-SH, C165S AhpC-SO2H and —SO3H, WT AhpC-S—S-AhpC (Salmonella typhimurium, UniProt P0A251, C166S) (P0A251 2-187 C166S): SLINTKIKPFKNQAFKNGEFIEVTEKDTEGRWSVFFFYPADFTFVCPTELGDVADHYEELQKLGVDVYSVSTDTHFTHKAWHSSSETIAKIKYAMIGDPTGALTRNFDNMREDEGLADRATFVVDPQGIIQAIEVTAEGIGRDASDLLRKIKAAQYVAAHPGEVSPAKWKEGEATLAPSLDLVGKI

SMILES | intracellular ROS level (DCF) [1] | reactivity with AhpC-SOH as pH increases ([2]; higher pH (up to 9.5)) | reactivity with AhpC-SOH at low pH ([2]; pH 5.5 and 6.5) | K0.5 (hyperbolic fit of labeling vs probe concentration) ([2]; pH 7.4, 2 h, r.t., 0.2-10 mM probe) [mM] | labeling of —SOH compared with dimedone ([2]; pH 7.4 and 8.5, 50 μM protein, 5 mM reagent, 4 h) | cell permeability (biotin signal after click reaction) [3] | adduct formation with reduced form of C165S AhpC [4] | labeling of lysate proteins (streptavidin-HRP signal) ([5]; pH 5.5) | labeling of lysate proteins (streptavidin-HRP signal) ([5]; pH 7.4 and 9.5) | selectivity of labeling in cell lysates ([5]; pH 7.4, lysates pre-reduced with TCEP as control) | effect on cell viability [6] | enol content ([7]; in aqueous solution) [%] | labeling of C165S AhpC-SOH (adduct product peak) ([2]; AhpC 50 uM, reagent 5 mM, pH 7.4, 3 h) | reaction with —SH, —S—S—, —SO2/3H, or other amino acid residues [8] | keto-enol tautomerism state ([7]; reported) | pKa for the carbon between keto groups ([7]; reported) | reactivity at mildly acidic or basic conditions compared to pH 7.4 ([2]; data not shown) | IC50 ([6]; read-out: IC50 (50% reduction in cell viability)) [mM]
C#CCCOC(=O)CC(C)=O [compound 2, but-3-yn-1-yl 3-oxobutanoate] | did not alter the basal level of ROS | becomes highly reactive | reacts very slowly | 3.0 ± 0.3 | Increased labeling | cell permeable | no adduct formation | no visible signal | Nearly equal labeling | selective towards —SOH | did not significantly affect cell viability |  |  |  |  |  |  | 
COC(=O)CC(C)=O [compound 1, methyl acetoacetate] |  |  |  |  |  |  |  |  |  |  |  | 7.4 | labeling of C165S AhpC-SOH | did not react |  |  |  | 
CC1(C)CC(=O)CC(=O)C1 [dimedone, 5,5-dimethyl-1,3-cyclohexanedione, reference compound] | significant increase in ROS |  |  |  |  |  |  |  |  |  |  |  |  |  | exclusively in the enol state | 4.3 | slight increase in reactivity | 5.3 ± 0.2
